Four compounds from PubChem BioAssay AID1259411 (Chemical Carcinogenesis Research Information System (CCRIS), 2018) can be followed below.

The structures appear in SMILES notation. The source made the active and inactive calls. The rule behind the calls is not given here.

This data set deals with rodent carcinogenicity bioassays, tumor incidence. As to the kind of experiment: CCRIS carcinogenicity studies. The gist of the method:
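Archive of carcinogenicity, mutagenicity, tumor promotion and tumor inhibition results drawn from journals, NCI reports and other sources, expert-reviewed; covers 1985-2011 and is no longer updated.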

For the compound `Nc1ccc(-c2ccccc2)cc1`, the carcinogen call is, setting by setting: (Species: DOG, Route: ORAL, Tumor Site: Type of Lesion: URINARY BLADDER) “active; positive”; (Species: HUMAN, Route: ORAL, INHALATION, DERMAL, Tumor Site: Type of Lesion: URINARY BLADDER) “active; positive”; (Species: MOUSE, Route: ORAL, Tumor Site: Type of Lesion: URINARY BLADDER, LIVER) “active; positive”; (Species: MOUSE, Route: SUBCUTANEOUS, Tumor Site: Type of Lesion: LIVER) “active; positive”; (Species: MOUSE, Strain/Sex: B6C3F1/MALE, Route: INTRAPERITONEAL, Dose: 0, 0.625 UMOL IN 35 µL DMSO ON D 1, 8, AND 15 AFTER BIRTH (STUDY DURATION: 8 MO), Tumor Site: Type of Lesion: LIVER: HEPATOCELLULAR ADENOMA) “active; positive”; (Species: MOUSE, Strain/Sex: B6C3F1/MALE, Route: INTRAPERITONEAL, Dose: 0, 0.625 UMOL IN 35 µL DMSO ON D 1, 8, AND 15 AFTER BIRTH (STUDY DURATION: 12 MO), Tumor Site: Type of Lesion: LIVER: HEPATOCELLULAR ADENOMA, HEPATOCELLULAR CARCINOMA) “active; positive”. Besides, the carcinogen call is, setting by setting: (Species: MOUSE, Strain/Sex: B6C3F1/MALE, Route: INTRAPERITONEAL, Dose: 0, 1.25 UMOL IN 35 µL DMSO ON D 1, 8, AND 15 AFTER BIRTH (STUDY DURATION: 8 MO), Tumor Site: Type of Lesion: LIVER: HEPATOCELLULAR ADENOMA) “active; positive”; (Species: MOUSE, Strain/Sex: B6C3F1/MALE, Route: INTRAPERITONEAL, Dose: 0, 1.25 UMOL IN 35 µL DMSO ON D 1, 8, AND 15 AFTER BIRTH (STUDY DURATION: 12 MO), Tumor Site: Type of Lesion: LIVER: HEPATOCELLULAR ADENOMA, HEPATOCELLULAR CARCINOMA) “active; positive”; (Species: MOUSE, Strain/Sex: BALB/CSTCRLFC3HF/NCTR/FEMALE, Route: ORAL, Dose: 0, 7, 19, 38, 75, 150, 300 PPM IN DRINKING WATER FOR 96 WK (STUDY DURATION: 96 WK), Dose: 0, 7, 19, 38, 75, 150, 300 PPM IN DRINKING WATER FOR 96 WK (STUDY DURATION: 96 WK), Tumor Site: Type of Lesion: BLOOD VESSELS: ANGIOSARCOMA, LIVER: HEPATOCELLULAR CARCINOMA) “active; positive”; (Species: MOUSE, Strain/Sex: BALB/CSTCRLFC3HF/NCTR/MALE, Route: ORAL, Dose: 0, 7, 14, 28, 55, 110, 220 PPM IN DRINKING WATER FOR 96 WK (STUDY DURATION: 96 WK), Dose: 0, 7, 14, 28, 55, 110, 220 PPM IN DRINKING WATER FOR 96 WK (STUDY DURATION: 96 WK), Tumor Site: Type of Lesion: BLOOD VESSELS: ANGIOSARCOMA, BLADDER: CARCINOMA) “active; positive”; (Species: RABBIT, Route: ORAL, Tumor Site: Type of Lesion: URINARY BLADDER) “active; positive”; (Species: RAT, Route: SUBCUTANEOUS, Tumor Site: Type of Lesion: MAMMARY GLAND, INTESTINES) “active; positive”.
Consider `C=CF`, for which the carcinogen call (Species: MOUSE, Strain/Sex: SWISS/FEMALE, Route: INHALATION, Dose: 0, 25, 250, 2500 PPM 6 HR/D 5 D/WK FOR 18 MO (STUDY DURATION: 18 MO), Dose: 0, 25, 250, 2500 PPM 6 HR/D 5 D/WK FOR 18 MO (STUDY DURATION: 18 MO), Tumor Site: Type of Lesion: LUNG: ADENOMA, LIVER: HEMANGIOSARCOMA, MAMMARY GLAND: TUMOR, Tumor Site: Type of Lesion: LUNG: ADENOMA, LIVER: HEMANGIOSARCOMA, MAMMARY GLAND: TUMOR) is “active; positive”; the carcinogen call (Species: MOUSE, Strain/Sex: SWISS/MALE, Route: INHALATION, Dose: 0, 25, 250, 2500 PPM 6 HR/D 5 D/WK FOR 18 MO (STUDY DURATION: 18 MO), Dose: 0, 25, 250, 2500 PPM 6 HR/D 5 D/WK FOR 18 MO (STUDY DURATION: 18 MO), Tumor Site: Type of Lesion: LUNG: ADENOMA, LIVER: HEMANGIOSARCOMA) was “active; positive”; the carcinogen call (Species: RAT, Strain/Sex: SPRAGUE-DAWLEY/FEMALE, Route: INHALATION, Dose: 0, 25, 250, 2500 PPM 6 HR/D 5 D/WK FOR 2 YR (STUDY DURATION: 2 YR), Dose: 0, 25, 250, 2500 PPM 6 HR/D 5 D/WK FOR 2 YR (STUDY DURATION: 2 YR), Tumor Site: Type of Lesion: LIVER: HEMANGIOSARCOMA, ADENOMA OR CARCINOMA, ZYMBAL'S GLAND: TUMOR) is “active; positive”; the carcinogen call (Species: RAT, Strain/Sex: SPRAGUE-DAWLEY/MALE, Route: INHALATION, Dose: 0, 25, 250, 2500 PPM 6 HR/D 5 D/WK FOR 2 YR (STUDY DURATION: 2 YR), Dose: 0, 25, 250, 2500 PPM 6 HR/D 5 D/WK FOR 2 YR (STUDY DURATION: 2 YR), Tumor Site: Type of Lesion: LIVER: HEMANGIOSARCOMA, ZYMBAL'S GLAND: TUMOR) was “active; positive”.
Regarding `CC(C)C(C(=O)OC(C#N)c1cccc(Oc2ccccc2)c1)c1ccc(Cl)cc1` (stereo unspecified), the carcinogen call is “inactive; negative” (Species: MOUSE, Strain/Sex: B6C3F1/FEMALE, Route: ORAL, Dose: 0, 10, 50, 250, 1250 PPM IN THE DIET FOR 2 YR (STUDY DURATION: 2 YR), Dose: 0, 10, 50, 250, 1250 PPM IN THE DIET FOR 2 YR (STUDY DURATION: 2 YR)); “inactive; negative” (Species: MOUSE, Strain/Sex: B6C3F1/MALE, Route: ORAL, Dose: 0, 10, 50, 250, 1250 PPM IN THE DIET FOR 2 YR (STUDY DURATION: 2 YR), Dose: 0, 10, 50, 250, 1250 PPM IN THE DIET FOR 2 YR (STUDY DURATION: 2 YR)); “inactive; negative” (Species: MOUSE, Strain/Sex: C57BL/FEMALE, Route: INTRAGASTRIC, Dose: 0, 40, 80 MG/KG IN ARACHIS OIL 5/WK FOR 104 WK (STUDY DURATION: 120 WK), Dose: 0, 40, 80 MG/KG IN ARACHIS OIL 5/WK FOR 104 WK (STUDY DURATION: 120 WK)); “inactive; negative” (Species: MOUSE, Strain/Sex: C57BL/MALE, Route: INTRAGASTRIC, Dose: 0, 40, 80 MG/KG IN ARACHIS OIL 5/WK FOR 104 WK (STUDY DURATION: 120 WK), Dose: 0, 40, 80 MG/KG IN ARACHIS OIL 5/WK FOR 104 WK (STUDY DURATION: 120 WK)); “inactive; negative” (Species: RAT, Strain/Sex: SPRAGUE-DAWLEY/MALE,FEMALE, Route: ORAL); “inactive; negative” (Species: Rat, Strain/Sex: Sprague-Dawley/Male and female (93/Experimental group and 183/Control group), Route: Oral, Dose: 0, 1, 5, 25, 250 ppm in diet for 2 yr, study duration 2 yr, Dose: 0, 1, 5, 25, 250 ppm in diet for 2 yr, study duration 2 yr).
With `NC(=O)N(CCc1ccccc1)N=O`, the carcinogen call is “active; positive” (Species: RAT, Strain/Sex: F344/FEMALE, Route: GAVAGE, Dose: 0, 20 MG/ML (TOTAL DOSE 0; 0.9 MMOL) IN 2 ML ETHYL ACETATE AND CORN OIL (1:2) 2/WK FOR 22 WK (STUDY DURATION: LIFETIME), Dose: 0, 20 MG/ML (TOTAL DOSE 0; 0.9 MMOL) IN 2 ML ETHYL ACETATE AND CORN OIL (1:2) 2/WK FOR 22 WK (STUDY DURATION: LIFETIME), Tumor Site: Type of Lesion: LIVER: TUMOR, FORESTOMACH: SQUAMOUS CELL CARCINOMA); “active; positive” (Species: RAT, Strain/Sex: F344/FEMALE, Route: GAVAGE, Dose: 0, 20 MG/ML IN 0.2 ML ETHYL ACETATE AND CORN OIL 2/WK FOR 22 WK (STUDY DURATION: LIFESPAN), Tumor Site: Type of Lesion: FORESTOMACH: TUMOR, LIVER: TUMOR); “active; positive” (Species: RAT, Strain/Sex: F344/MALE, Route: GAVAGE, Dose: 0, 20 MG/ML (TOTAL DOSE 0; 0.9 MMOL) IN 2 ML ETHYL ACETATE AND CORN OIL (1:2) 2/WK FOR 22 WK (STUDY DURATION: LIFETIME), Dose: 0, 20 MG/ML (TOTAL DOSE 0; 0.9 MMOL) IN 2 ML ETHYL ACETATE AND CORN OIL (1:2) 2/WK FOR 22 WK (STUDY DURATION: LIFETIME), Tumor Site: Type of Lesion: LIVER: TUMOR, FORESTOMACH: SQUAMOUS CELL CARCINOMA); “active; positive” (Species: RAT, Strain/Sex: F344/MALE, Route: GAVAGE, Dose: 0, 20 MG/ML IN 0.2 ML ETHYL ACETATE AND CORN OIL 2/WK FOR 22 WK (STUDY DURATION: LIFESPAN), Tumor Site: Type of Lesion: FORESTOMACH: TUMOR, LIVER: TUMOR, DUODENUM: TUMOR, Tumor Site: Type of Lesion: FORESTOMACH: TUMOR, LIVER: TUMOR, DUODENUM: TUMOR).
